Experimental data: EP0173262A2, “Use of 1,4-naphthoquinone derivatives in a low concentration as immunostimulating agents” (Carnivora-Deutschland GmbH, priority 1984, dated 1986)

How the values were obtained:
[1] = test system: polymorphkernigen Leucocyten (PMNL); experiment: Chemiluminescence measurement (modified after Allen), zymosan-stimulated PMNL; type: cell-based; conditions: concentration range 10^-1 bis 10^-2 mg/ml
Description: (§1) Die vorliegende Erfindung beruht auf dem erstmaligen Nachweis einer Immunstimulation durch 1,4-Naphthochinon-Derivate der angegebenen Art. Die Immunstimulation läßt sich experimentell in vitro und in vivo klar nachweisen. Als geeignete immunologische Testverfahren dienen der Carbon Clearance-Test (CCT)-RES-Funktion (Biozzi, G. Benacerraf, B. und Halpern, B.N., Br. J. Exp.Pathol. 34, 441 (1953)); der Granulocyten-Test gemäß Brandt, L., Scand.J.Haematol. Suppl. 2 (1967), der vorzugsweise in modifizierter Form angewandt wird; sowie eine Chemoluminenszenz-Messung nach Allen (Allen, R.C. in "Bioluminescence and Chemiluminescence; Basic Chemistry and Analytical Applications", Eds: De Luca und Mc Elroy, S. 63-73, Academie Press, New York, 1981).
• a) PBS-Puffer ohne Ca^2+ und Mg^2+ (steril) (Fa. Biochrom, Berlin) • b) Veronal-gepufferte Kochsalzlösung mit Ca^2+, Mg^2+, Glucose und Albumin Stammlösung: 8.3 g NaCl, 1.02 g Natrium, 5,5-Diäthylbarbiturat (Veronal), 102 mg MgCl2, 22 mgCaCl2 in 150 ml H2O (bidest.) lösen, + 3.5 ml 1M IICL auf 200 ml mit H20 (bidest.) auffüllen. Von dieser Stammlösung werden 40 ml mit 140 ml H20 (bidest.) verdünnt, mit 1M HCL auf pH 7.0 eingestellt und mit II20 (bidest.) auf 200 ml auf gefüllt. […]

[2] = test system: Granulozyten; experiment: Granulocyte test (modified after Brandt), phagocytosis of yeast particles; type: cell-based; conditions: concentration range 10^-1 bis 10^-2 mg/ml
Description: as §1
In 20 ml Spritze 1 Tropfen Heparin (Thrombophob) und ca. 10 ml Blut abnehmen und mit 1,5% Dextran T 500 im Verhältnis 2:1 mischen. Kanüle auf der Spritz umbiegen und 30 Minuten bei 25°C absetzen lassen (ca. 2-3 ml Blut für Eigenserum abnehmen).
Den Überstand (Leukozytensuspension) in steriles Röhrchen überspritzen; 7 Minuten bei 500 U. zentrifugieren.
Überstand weggießen, Bodensatz (Leukozyten) 2 mal mit RPM I-Puffer bei 500 U. waschen.
Granulozyten mit ca. 5 ml Puffer auffüllen und Zellen auf 5 x 10 x 10^6 einstellen. […] Zellsuspension in 0,475 ml 3 % iger Essigsäure mischen. In Neubauerkammer 4 Quadrate auszählen (100 Zellen/Kammer). […]

CC1=CC(=O)c2c(O)cccc2C1=O [Plumbagin]
effect at higher concentrations [1]: Phagocytosehemmung sowie eine Immunsuppression bzw. Cytotoxicität
effect on phagocytosis at higher concentrations [2]: ausgeprägte Phagocytosehemmung
